According to patent US8173689B2 (Novartis AG, priority 2006, dated 2012):
Where two headings read alike, the source gives them in different places.

Assays:
kinase domain of PDGFRβ = biological target: T1, kinase domain of PDGFRβ (Homo sapiens, UniProt P09619); experiment: Inhibition of PDGFRb kinase signaling in an in vitro biochemical assay (alphascreen); details: tested at about 1 μM, read-out: PDGFRβ percent inhibition
T1 construct: The kinase domain of PDGFRβ was assayed in 50 mM Hepes; purchased Invitrogen P3082

kinase domain of cKIT = biological target: T2, kinase domain of cKIT (Homo sapiens, UniProt P10721); experiment: Inhibition of cKIT kinase signaling in an in vitro biochemical assay (alphascreen); details: tested at about 1 μM, read-out: cKit percent inhibition
T2 construct: The kinase domain of cKIT was assayed in 50 mM Hepes; purchased Upstate 14-559

[1] = tested on: MNFS60 (murine AML cells); experiment: Cell viability assay in MCSF dependent MNFS60 cells (Cell Titer Glo); format: cell-based; details: Mus musculus, tested at about 1 μM, read-out: M-NFS-60 CP percent inhibition
How it was run: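 Luminescent ATP signal (CellTiter-Glo) after 72 hrs of compound exposure served as the viability measure. Growth was supported by 10 ng/ml MCSF (final), and EC50 values come from fitted triplicate data.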

[2] = biological target: T3, cytoplasmic domain of the human CSF-1R (Homo sapiens, UniProt P07333); experiment: In vitro kinase assay for colony stimulating factor-1 receptor (AlphaScreen); format: biochemical; details: tested at about 1 μM, read-out: CSF-1R percent inhibition
T3 construct: Recombinant protein corresponding to the cytoplasmic domain of the human CSF-1R; purchased Invitrogen Corporation, Carlsbad, Calif; PV3249
T3 sequence (P07333 539-972 limits assumed): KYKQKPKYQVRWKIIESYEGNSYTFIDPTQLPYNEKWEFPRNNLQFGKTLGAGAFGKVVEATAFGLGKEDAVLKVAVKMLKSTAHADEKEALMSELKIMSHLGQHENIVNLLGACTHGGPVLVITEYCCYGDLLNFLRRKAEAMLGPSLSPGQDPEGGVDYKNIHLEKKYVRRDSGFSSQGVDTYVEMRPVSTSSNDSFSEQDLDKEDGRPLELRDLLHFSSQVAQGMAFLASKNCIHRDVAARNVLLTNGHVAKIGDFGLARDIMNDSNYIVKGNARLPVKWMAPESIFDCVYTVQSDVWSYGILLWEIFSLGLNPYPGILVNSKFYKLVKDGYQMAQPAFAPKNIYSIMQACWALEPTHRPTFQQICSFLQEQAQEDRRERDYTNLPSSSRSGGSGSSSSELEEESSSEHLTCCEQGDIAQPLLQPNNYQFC
How it was run: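 Tyrosine phosphorylation of a peptide substrate by 4 nM recombinant cytoplasmic-domain enzyme is measured at 1 μM ATP in Mn2+/Mg2+-containing Hepes buffer, pH 7.5. Detection uses PT66 AlphaScreen beads after overnight incubation.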

T1 sequence (P09619 600-962 limits assumed): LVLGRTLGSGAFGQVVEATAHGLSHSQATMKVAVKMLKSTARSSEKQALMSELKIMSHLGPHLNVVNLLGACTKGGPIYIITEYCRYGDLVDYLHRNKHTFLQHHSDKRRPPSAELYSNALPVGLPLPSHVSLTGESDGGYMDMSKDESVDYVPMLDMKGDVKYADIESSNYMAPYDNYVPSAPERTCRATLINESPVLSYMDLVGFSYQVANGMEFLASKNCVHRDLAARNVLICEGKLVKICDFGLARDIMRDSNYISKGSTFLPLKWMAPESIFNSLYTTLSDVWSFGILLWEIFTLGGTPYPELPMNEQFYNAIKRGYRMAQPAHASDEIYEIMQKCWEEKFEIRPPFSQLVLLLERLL
T2 sequence (P10721 589-937 limits assumed): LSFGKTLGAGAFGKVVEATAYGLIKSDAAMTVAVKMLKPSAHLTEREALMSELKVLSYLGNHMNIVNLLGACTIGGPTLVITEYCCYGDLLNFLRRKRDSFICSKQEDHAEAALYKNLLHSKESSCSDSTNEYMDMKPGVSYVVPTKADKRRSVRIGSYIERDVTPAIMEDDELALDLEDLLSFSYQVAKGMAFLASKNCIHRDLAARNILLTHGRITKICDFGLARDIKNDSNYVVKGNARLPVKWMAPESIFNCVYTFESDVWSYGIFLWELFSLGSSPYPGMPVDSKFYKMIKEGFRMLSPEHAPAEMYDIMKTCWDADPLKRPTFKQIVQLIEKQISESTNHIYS

Compound	inhibition at 1 µM (kinase domain of PDGFRβ)	inhibition at 1 µM (kinase domain of cKIT)	inhibition at 1 µM [2]	inhibition at 1 µM (kinase domain of PDGFRβ; compounds of Table 3)	inhibition at 1 µM (kinase domain of cKIT; compounds of Table 3)	inhibition at 1 µM ([2]; compounds of Table 3)	inhibition at 1 µM ([1]; MNFS60 cells)	inhibition at 1 µM ([1]; MCSF dependent MNFS60 cells)	inhibition at 1 µM ([1]; compounds of Table 3)
CNC(=O)c1cc(Oc2ccc3nc(NCc4ccc5c(c4)OCCO5)oc3c2)ccn1 [Compound 122, 4-{2-[(2,3-Dihydro-benzo-[1,4]dioxin-6-ylmethyl)-amino]-benzooxazol-6-yloxy}-pyridine-2-carboxylic acid methylamide]	0%	53%	100%	–	–	–	19%	–	–
CNC(=O)c1cc(Oc2ccc3nc(NCc4ccccc4Br)oc3c2)ccn1 [Compound 72, 4-[2-(2-Bromo-benzylamino)-benzooxazol-6-yloxy]-pyridine-2-carboxylic acid methylamide]	0%	65%	100%	–	–	–	48%	–	–
CNC(=O)c1cc(Oc2ccc3nc(NCCc4cccc5c4OCCO5)oc3c2)ccn1 [Compound 123, 4-{2-[2-(2,3-Dihydro-benzo-[1,4]dioxin-5-yl)-ethylamino]-benzooxazol-6-yloxy}-pyridine-2-carboxylic acid methylamide]	2%	15%	99%	–	–	–	0%	–	–
CNC(=O)c1cc(Oc2ccc3nc(NCc4c(OC)cc(OC)cc4OC)oc3c2)ccn1 [Compound 113, 4-[2-(2,4,6-Trimethoxy-benzylamino)-benzooxazol-6-yloxy]-pyridine-2-carboxylic acid methylamide]	17%	7%	97%	–	–	–	19%	–	–
O[C@@H]1CCCC[C@H]1Nc1nc2ccc(Oc3ccncc3Br)cc2s1 [Example 224, (1R,2R)-2-(6-(3-bromopyridin-4-yloxy)benzo[d]thiazol-2-ylamino)cyclohexanol]	–	–	–	0%	26%	100%	–	–	33%
OC[C@@H](Nc1nc2ccc(Oc3ccnc4ccccc34)cc2s1)C1CCCCC1 [Example 236, (S)-2-cyclohexyl-2-(6-(quinolin-4-yloxy)benzo[d]thiazol-2-ylamino)ethanol]	–	–	–	97%	100%	100%	–	–	100%
Cn1cc(-c2cnccc2Oc2ccc3nc(N[C@@H]4CCCC[C@H]4O)sc3c2)cn1 [Example 189]	–	–	–	23%	31%	100%	–	–	26%
CNC(=O)c1cc(Oc2ccc3nc(NCc4cc(OC)ccc4F)oc3c2)ccn1 [Compound 73, 4-[2-(2-Fluoro-5-methoxy-benzylamino)-benzooxazol-6-yloxy]-pyridine-2-carboxylic acid methylamide]	2%	21%	100%	–	–	–	0%	–	–
CNC(=O)c1cc(Oc2ccc3nc(NCC4COc5ccccc5O4)sc3c2)ccn1 (stereo not drawn) [Compound 144]	–	–	–	12%	38%	100%	–	–	41%
FC(F)Oc1ccccc1CNc1nc2ccc(Oc3ccnc4ccccc34)cc2s1 [Example 246, N-(2-(difluoromethoxy)benzyl)-6-(quinolin-4-yloxy)benzo[d]thiazol-2-amine]	–	–	–	82%	100%	100%	–	–	100%

Continued, in another order:

inhibition at 1 µM (kinase domain of PDGFRβ)	inhibition at 1 µM (kinase domain of cKIT)	inhibition at 1 µM [2]	inhibition at 1 µM (kinase domain of PDGFRβ; compounds of Table 3)	inhibition at 1 µM (kinase domain of cKIT; compounds of Table 3)	inhibition at 1 µM ([2]; compounds of Table 3)	Compound	inhibition at 1 µM ([1]; MNFS60 cells)	inhibition at 1 µM ([1]; MCSF dependent MNFS60 cells)	inhibition at 1 µM ([1]; compounds of Table 3)
0%	6%	99%	–	–	–	CNC(=O)c1cc(Oc2ccc3nc(NCC4CCCN(C(C)=O)C4)sc3c2)ccn1 (stereo not drawn) [Example 306, 4-(2-((1-acetylpiperidin-3-yl)methylamino)benzo[d]thiazol-6-yloxy)-N-methylpicolinamide]	–	48%	–
0%	2%	99%	–	–	–	CNC(=O)c1cc(Oc2ccc3nc(N[C@H]4CCCC[C@H]4NS(C)(=O)=O)sc3c2)ccn1 [Example 300, N-methyl-4-(2-((1S,2R)-2-(methylsulfonylamido)cyclo-hexylamino)benzo[d]thiazol-6-yloxy)picolinamide]	–	14%	–
–	–	–	0%	69%	100%	c1ccc2c(c1)CCC[C@@H]2Nc1nc2ccc(Oc3ccnc4ccccc34)cc2s1 [Example 249, (S)-6-(quinolin-4-yloxy)-N-(1,2,3,4-tetrahydronaphthalen-1-yl)benzo[d]thiazol-2-amine]	–	–	100%
–	–	–	20%	57%	100%	N#Cc1ccc(-c2cc(Oc3ccc4nc(N[C@@H]5CCCC[C@H]5O)sc4c3)ccn2)cn1 [Example 287, 4-(2-((1R,2R)-2-hydroxycyclohexylamino)benzo[d]thiazol-6-yloxy)-2,3'-bipyridine-6'-carbonitrile]	–	–	35%
19%	21%	99%	–	–	–	CNC(=O)c1cc(Oc2ccc3nc(N[C@@H]4CCC[C@H]4O)sc3c2)ccn1 [Example 324, 4-(2-((1R,2R)-2-hydroxycyclopentylamino)benzo[d]thiazol-6-yloxy)-N-methylpicolinamide]	–	15%	–
12%	13%	99%	–	–	–	CNC(=O)c1cc(Oc2ccc3nc(NCCc4ccccn4)sc3c2)ccn1 [Example 314, N-methyl-4-(2-(2-(pyridin-2-yl)ethylamino)benzo[d]thiazol-6-yloxy)picolinamide]	–	20%	–
–	–	–	8%	33%	99%	O[C@@H]1CCCC[C@H]1Nc1nc2ccc(Oc3ccnc(-c4cncnc4)c3)cc2s1 [Example 285, (1R,2R)-2-(6-(2-(pyrimidin-5-yl)pyridin-4-yloxy)benzo[d]thiazol-2-ylamino)cyclohexanol]	–	–	0%
18%	9%	100%	–	–	–	CNC(=O)c1cc(Oc2ccc3nc(N[C@H]4CCCN(C(C)=O)C4)sc3c2)ccn1 [Example 304, (S)-4-(2-(1-acetylpiperidin-3-ylamino)benzo[d]thiazol-6-yloxy)-N-methylpicolinamide]	–	23%	–
100%	100%	100%	–	–	–	Cn1cc(-c2cc(Oc3ccc4nc(N[C@H](CO)C5CCCCC5)sc4c3)ccn2)cn1 [Example 353, (S)-2-cyclohexyl-2-(6-(2-(1-methyl-1H-pyrazol-4-yl)pyridin-4-yloxy)benzo[d]thiazol-2-ylamino)ethanol]	–	100%	–
–	–	–	2%	28%	99%	C[C@H](Nc1nc2ccc(Oc3ccnc(C(=O)NN(C)C)c3)cc2s1)C1CCCCC1 [Example 289, (S)-4-(2-(1-cyclohexylethylamino)benzo[d]thiazol-6-yloxy)-N',N'-dimethylpicolinohydrazide]	–	–	0%
49%	75%	100%	–	–	–	CNC(=O)c1cc(Oc2ccc3nc(N[C@@H]4CCCC[C@H]4O)sc3c2C)ccn1 [Example 377, 4-(2-((1R,2R)-2-hydroxycyclohexylamino)-7-methylbenzo[d]thiazol-6-yloxy)-N-methylpicolinamide]	–	93%	–
